Laboratory results from US20150224190A1, “Combination of a phosphoinositide 3-kinase inhibitor and an inhibitor of the IL-8/CXCR interaction” (priority 2012, published 2015).

Experiments:
[1] = tested on: JAK2/STAT5; assay: JAK2/STAT5 phosphorylation in breast cancer cell lines (pJAK2 ELISA, pSTAT5 immunoblot); assay type: cell-based, human; details: for JAK2 activation, starting at (time of treatment): in vitro, time after adding the compound
Experimental: MDA231, lung metastatic subline MDA231 LM2 (Minn et al., 2005) and SUM159 human breast cancer cells, as well as the Balb/c tumor-derived mammary cancer lines 4T-1 and 168FARN (Aslakson and Miller, 1992), were propagated as previously described. All other cell lines were obtained from and were cultured according to the protocols of ATCC. For treatment with inhibitors, cells were synchronized without serum overnight and then supplemented with culture medium containing the inhibitor(s). For experiments with doxycycline-inducible shRNAs, 500 ng/ml of doxycycline (Sigma) was added to the medium and experiments performed 48 h later. Cell viability assays, cell cycle and cell death measurements were performed at 0.5% FCS in order to avoid masking effects of growth factors present under full-serum conditions.
Cells for Western Blotting and ELISA were lysed with RIPA buffer. Xenograft lysates were prepared by lysing kryo-homogenized tumor powder in RIPA buffer (50 mM Tris-HCl pH 8, 150 mM NaCl, 1% NP-40, 0.5% sodium deoxycholate, 0.1% SDS. RIPA was supplemented with 1× protease inhibitor cocktail (Complete Mini, Roche), 0.2 mmol/L sodium-vanadate, 20 mM sodium fluoride and 1 mmol/L phenylmethylsulfonyl fluoride. For IRS-1 immunoprecipitation, cell lysates containing 500-1000 μg of protein were incubated with 1 μg of antibody and 20-50 μl of protein A-Sepharose beads (Zymed Laboratories, Inc., South San Francisco, Calif.) overnight at 4° C. Immunoprecipitates or whole cell lysates (30-80 μg) were subjected to SDS-PAGE, transferred to PVDF membranes (Immobilon-P, Millipore) and blocked for 1 hr at room temperature with 5% milk in PBS-0.1% Tween 20. Membranes were then incubated overnight with antibodies as indicated and exposed to secondary HRP-coupled anti-mouse or -rabbit antibody at 1:5-10,000 for 1 h at room temperature. Proteins were visualized using an ECL kit (Amersham) or an enhanced chemiluminescence detection system (Pierce Biotechnology). In each of the studies presented, the results shown are typical of at least three independent experiments. The following antibodies were used: anti-JAK2 (Cell Signaling), anti-JAK1 (Cell Signaling), anti-pSTAT5 (Tyr694, Cell Signaling), anti-STAT5 (STAT5A&B, Cell Signaling), anti-STAT3 (Cell Signaling), anti-pSTAT3 (Tyr705, Cell Signaling), anti-AKT pan (Cell Signaling), anti-pAKT (Thr308 and Ser473, Cell Signaling), anti-ERK2 (Santa Cruz), anti-S6 (Cell Signaling), anti-pS6 (Ser235/236, Cell Signaling), anti-PARP (Cell Signaling), anti-MCL1 (Cell Signaling), anti-BIM (EL, L and S isoforms, Cell Signaling), anti-pIGF1R/plnsR (Invitrogen), anti-IGF1Rbeta (Cell Signaling), anti-InsRbeta (Santa Cruz), anti-IRS1 (Upstate), anti-plRS1 (Tyr612, Calbiochem).
For assessing pJAK2 levels, an ELISA assay (Tyr1007/1008, Invitrogen) was applied because of cross-reactivity of all pJAK2 antibodies tested. Interleukin-8 levels in RIPA lysates, cell culture supernatants and mouse tail vein blood plasma were measured by ELISA, as well (Biolegend). […]
The present inventors applied single doses of COMPOUND A, a dual PI3K and mTOR inhibitor, and analyzed target inhibition and potential signaling pathway crosstalks after 2, 4, 8 and 20 h hours of treatment. […] While RAD001 readily activated JAK2 starting at 4 hours of treatment, they observed a later response with BKM120 treatment starting at 8 hours after adding the compound. […]

[2] = tested on: MDA231 LM2 cells; assay: Matrigel Boyden chamber invasion assay; assay type: cell-based, human; details: 300 nM BEZ235, 350 nM NVP-BSK805, CXCR1 blocking antibody; 48 h; normalized to cell number
Experimental: FIG. 2. Blockade of CXCR1 reduces invasion and has minor effects on primary tumor growth (A) NVP-BSK805 and CXCR1 blockade but not BEZ235 decrease invasion. Bar graphs showing relative invasion of MDA231 LM2 cells seeded on Matrigel coated Boyden invasion chambers and treated with 300 nM BEZ235, 350 nM NVP-BSK805, a JKA2 inhibitor, and/or CXCR1 blocking antibody. Invasion was assessed after 48 h, data represent relative invasion values normalized to cell number and are means±SEM (n=4, *P<0.05).
Cytokine stimulation of cells was performed for 30 min in medium with 0.5% FCS supplemented with cytokines at 10 ng/ml, except for EPO at 10 U/ml. Antibody-blocking experiments were performed by adding anti-CXCR1 (R&D, MAB330, 1 μg/ml), anti-CXCR2 (R&D, MAB331, 2.5 μg/ml) or a mouse IgG antibody (R&D, 1 μg/ml) to the medium 45 min prior to lysis of the cells. Cell viability was measured using the Cell Proliferation Reagent WST-1 (Roche). Colony formation assays were performed by seeding 1000 cells/well in 6-well plates and staining single colonies after 7-14 days with 0.2% crystal violet in PBS/4% formalin. […] The number of invading cells in each treatment condition was counted 48 h after seeding by microscopy at 40× (using the mean of 4 microscopic fields) and normalized to cell number.

Nc1cc(C(F)(F)F)c(-c2cc(N3CCOCC3)nc(N3CCOCC3)n2)cn1 [COMPOUND C, 5-(2,6-di-morpholin-4-yl-pyrimidin-4-yl)-4-trifluoromethyl-pyridin-2-ylamine]
JAK2 activation, starting at (time of treatment) [1]: 8 h

Fc1cc(-c2cccc3ncc(-c4cnn(C5CCNCC5)c4)nc23)cc(F)c1CN1CCOCC1 [NVP-BSK805, reference compound]
relative invasion [2]: decrease | upregulation of pSTAT5 by BEZ235 ([1]; JAK2 inhibitor together with BEZ235): counteracted

CO[C@H]1C[C@@H]2CC[C@@H](C)[C@@](O)(O2)C(=O)C(=O)N2CCCC[C@H]2C(=O)O[C@H]([C@H](C)C[C@@H]2CC[C@@H](OCCO)[C@H](OC)C2)CC(=O)[C@H](C)/C=C(\C)[C@@H](O)[C@@H](OC)C(=O)[C@H](C)C[C@H](C)/C=C/C=C/C=C/1C [RAD001, reference compound]
JAK2 activation, starting at (time of treatment) [1]: 4 h
